Measured values reported in US10294207B2, “Pyrazole derivatives as TNIK, IKKϵ and TBK1 inhibitor and pharmaceutical composition comprising same” (GREEN CROSS CORPORATION, priority 2015, dated 2019).

How the values were obtained:
Format in all cases: biochemical
Conditions in all cases: luminometer
[1] = target: T1, TBK1 (Homo sapiens, UniProt Q9UHD2); test: TBK1 inhibition, ADP-Glo Kinase Assay
T1 construct: purchased Promega V3991
T1 sequence (Q9UHD2 1-729): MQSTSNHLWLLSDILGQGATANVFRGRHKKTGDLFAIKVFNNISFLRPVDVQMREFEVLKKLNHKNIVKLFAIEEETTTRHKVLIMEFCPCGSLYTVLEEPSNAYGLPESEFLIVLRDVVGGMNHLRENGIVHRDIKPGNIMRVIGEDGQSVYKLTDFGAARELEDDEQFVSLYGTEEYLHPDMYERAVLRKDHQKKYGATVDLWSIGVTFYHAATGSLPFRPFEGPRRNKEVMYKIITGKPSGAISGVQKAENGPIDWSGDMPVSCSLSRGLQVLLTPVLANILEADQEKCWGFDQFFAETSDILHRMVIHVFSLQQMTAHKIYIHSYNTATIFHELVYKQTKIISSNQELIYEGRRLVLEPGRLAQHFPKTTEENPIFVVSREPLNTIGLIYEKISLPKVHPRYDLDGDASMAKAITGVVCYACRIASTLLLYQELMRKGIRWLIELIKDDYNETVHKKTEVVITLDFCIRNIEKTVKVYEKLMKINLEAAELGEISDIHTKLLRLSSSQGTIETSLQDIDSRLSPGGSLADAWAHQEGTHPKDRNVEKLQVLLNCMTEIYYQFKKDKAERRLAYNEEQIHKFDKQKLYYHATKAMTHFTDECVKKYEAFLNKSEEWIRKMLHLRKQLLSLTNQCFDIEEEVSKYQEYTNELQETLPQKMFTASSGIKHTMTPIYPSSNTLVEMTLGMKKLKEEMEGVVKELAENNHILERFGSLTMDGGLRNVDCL
Summary of the method: (§1)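 Each recombinant kinase enzyme system was run per the manufacturer's protocol in 40 mM Tris pH 7.5, 20 mM MgCl2 and 0.1 mg/mL BSA. Kinase activity was detected as ADP formation by ADP-Glo luminescence.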

[2] = target: T2, IKKε (Homo sapiens, UniProt Q14164); test: IKKε inhibition, ADP-Glo Kinase Assay
T2 construct: purchased Invitrogen PR8031B
T2 sequence (Q14164 1-716): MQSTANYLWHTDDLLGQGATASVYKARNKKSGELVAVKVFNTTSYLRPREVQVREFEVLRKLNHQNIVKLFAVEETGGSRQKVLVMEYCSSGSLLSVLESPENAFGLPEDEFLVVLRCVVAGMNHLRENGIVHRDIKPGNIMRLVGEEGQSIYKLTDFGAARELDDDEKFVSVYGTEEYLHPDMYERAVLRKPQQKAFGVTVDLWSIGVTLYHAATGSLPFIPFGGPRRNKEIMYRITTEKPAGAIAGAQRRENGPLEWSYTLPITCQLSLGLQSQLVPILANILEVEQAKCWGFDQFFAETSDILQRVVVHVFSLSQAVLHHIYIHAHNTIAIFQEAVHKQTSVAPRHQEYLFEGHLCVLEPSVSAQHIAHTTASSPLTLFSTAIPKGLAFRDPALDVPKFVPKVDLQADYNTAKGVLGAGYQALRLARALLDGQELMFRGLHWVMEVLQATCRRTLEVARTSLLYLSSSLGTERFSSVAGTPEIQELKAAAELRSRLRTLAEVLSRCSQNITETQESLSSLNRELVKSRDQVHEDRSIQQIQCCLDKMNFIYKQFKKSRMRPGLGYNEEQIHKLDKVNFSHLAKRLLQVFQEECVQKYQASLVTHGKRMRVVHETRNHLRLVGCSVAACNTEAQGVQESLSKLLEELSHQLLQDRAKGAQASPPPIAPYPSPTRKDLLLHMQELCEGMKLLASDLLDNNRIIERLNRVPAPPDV
Summary of the method: as §1

[3] = target: T3, TNIK (Homo sapiens, UniProt Q9UKE5); test: TNIK inhibition, ADP-Glo Kinase Assay
T3 construct: purchased Promega V4158
T3 sequence (Q9UKE5 1-367 limits assumed): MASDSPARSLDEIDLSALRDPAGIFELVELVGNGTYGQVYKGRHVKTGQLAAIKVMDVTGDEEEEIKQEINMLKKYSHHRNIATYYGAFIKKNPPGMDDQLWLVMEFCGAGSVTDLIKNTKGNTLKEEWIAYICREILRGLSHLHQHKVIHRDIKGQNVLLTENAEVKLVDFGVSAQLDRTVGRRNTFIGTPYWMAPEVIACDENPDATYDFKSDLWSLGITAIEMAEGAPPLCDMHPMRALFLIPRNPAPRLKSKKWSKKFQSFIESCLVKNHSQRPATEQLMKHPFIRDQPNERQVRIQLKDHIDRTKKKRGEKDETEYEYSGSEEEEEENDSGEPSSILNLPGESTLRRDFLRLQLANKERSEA
Protocol: Inhibition activities on TNIK, IKKε and TBK1 were evaluated using the compounds of Examples 1 to 254.
The inhibition activities on TNIK, IKKε and TBK1 were measured by a luminometer, TNIK/IKKε/TBK1 Kinase Enzyme System (Promega, Ca# V4158; Invitrogen, PR8031B, Promega, Ca# V3991) and ADP-Glo Kinase Assay using ADP-Glo™ Kinase Analysis Kit (Promega, Ca# V9101) and a kinase reaction buffer [40 mM Tris(pH 7.5), 20 mM MgCl2, 0.1 mg/mL BSA] in accordance with the manufacturer's protocol.

SMILES | IC50 [1] | IC50 [2] | IC50 [3] | TNIK (μM), inhibition activity [3]
O=C(NCc1cccs1)c1ccc2[nH]nc(NC(=O)c3ccc(-n4ccnc4)cc3)c2c1 [Example 212, 3-(4-(1H-Imidazol-1-yl)benzamido)-N-(thiophen-2-ylmethyl)-1H-indazole-5-carboxamide] | 0.078 µM | 0.36 µM | – | –
CC(NC(=O)c1ccc2[nH]nc(NC(=O)c3ccc(F)cc3)c2c1)c1ccncc1 (centres unmarked) [Example 214, 3-(4-Fluorobenzamido)-N-(1-(pyridin-4-yl)ethyl)-1H-indazole-5-carboxamide] | 0.27 µM | 0.59 µM | – | –
Cc1cnc(-c2cc3[nH]nc(NC(=O)c4ccc(N5CCOCC5)cc4)c3s2)o1 [Example 218, N-(5-(5-methyloxazol-2-yl)-1H-thieno[3,2-c]pyrazol-3-yl)-4-morpholinobenzamide] | – | – | 0.048 µM | –
Cc1cnc(-c2cc3[nH]nc(NC(=O)c4ccccc4)c3s2)o1 [Example 220, N-(5-(5-methyloxazol-2-yl)-1H-thieno[3,2-c]pyrazol-3-yl)benzamide] | 1.2 µM | – | 0.36 µM | –
Cc1cnc(-c2cc3[nH]nc(NC(=O)c4ccc(NCCN5CCCC5)cc4)c3s2)o1 [Example 226, N-(5-(5-methyloxazol-2-yl)-1H-thieno[3,2-c]pyrazol-3-yl)-4-((2-(pyrrolidin-1-yl)ethyl)amino)benzamide] | 0.12 µM | – | 0.15 µM | –
Cc1cnc(-c2cc3[nH]nc(NC(=O)c4ccc(NCCN5CCOCC5)cc4)c3s2)o1 [Example 227, N-(5-(5-methyloxazol-2-yl)-1H-thieno[3,2-c]pyrazol-3-yl)-4-((2-morpholinoethyl)amino)benzamide] | 0.12 µM | – | 0.085 µM | –
Cc1cnc(-c2cc3[nH]nc(NC(=O)c4ccc(NCCO)cc4)c3s2)o1 [Example 228, 4-((2-hydroxyethyl)amino)-N-(5-(5-methyloxazol-2-yl)-1H-thieno[3,2-c]pyrazol-3-yl)benzamide] | 0.12 µM | – | 0.11 µM | –
COCCNc1ccc(C(=O)Nc2n[nH]c3cc(-c4ncc(C)o4)sc23)cc1 [Example 229, 4-((2-methoxyethyl)amino)-N-(5-(5-methyloxazol-2-yl)-1H-thieno[3,2-c]pyrazol-3-yl)benzamide] | 0.14 µM | – | 0.15 µM | –
COC(=O)c1cc2[nH]nc(-c3ccc(OC)cc3)c2s1 [Example 231, methyl 3-(4-methoxyphenyl)-1H-thieno[3,2-c]pyrazole-5-carboxylate] | > 10 µM | – | 0.54 µM | –
CCNC(=O)c1cc2[nH]nc(-c3ccc(OC)cc3)c2s1 [Example 232, N-ethyl-3-(4-methoxyphenyl)-1H-thieno[3,2-c]pyrazole-5-carboxamide] | > 10 µM | – | 1.95 µM | –
CCNC(=O)c1cc2[nH]nc(-c3ccccc3)c2s1 [Example 238, N-ethyl-3-phenyl-1H-thieno[3,2-c]pyrazole-5-carboxamide] | – | – | 3.47 µM | –
CCc1cnc(-c2cc3[nH]nc(-c4ccc(N5CCOCC5)cc4)c3s2)o1 [Example 244, 4-(4-(5-(5-ethyloxazol-2-yl)-1H-thieno[3,2-c]pyrazol-3-yl)phenyl)morpholine] | – | – | 1.01 µM | –
Cc1cnc(-c2cc3[nH]nc(-c4ccc(F)cc4)c3s2)o1 [Example 246, 2-(3-(4-fluorophenyl)-1H-thieno[3,2-c]pyrazol-5-yl)-5-methyloxazole] | – | – | 0.5 µM | –
COC(=O)c1cc2[nH]nc(-c3ccc(OCCN4CCOCC4)cc3)c2s1 [Example 249, methyl 3-(4-(2-morpholinoethoxy)phenyl)-1H-thieno[3,2-c]pyrazole-5-carboxylate] | – | – | 0.47 µM | –

Now from value to compound:

IC50 [1] | IC50 [2] | IC50 [3] | TNIK (μM), inhibition activity [3] | SMILES
0.0044 µM | 0.069 µM | – | – | CN1CCC(Nc2ccc(C(=O)Nc3n[nH]c4ccc(C(=O)NCc5cccs5)cc34)cc2)CC1 [Example 213]
0.021 µM | 0.32 µM | – | – | CC(C)(NC(=O)c1ccc2[nH]nc(NC(=O)c3ccc(F)cc3)c2c1)c1cccs1 [Example 215, 3-(4-Fluorobenzamido)-N-(2-(thiophen-2-yl)propan-2-yl)-1H-indazole-5-carboxamide]
3.7 µM | 5.25 µM | – | – | O=C(Nc1n[nH]c2ccc(C(=O)NC3(c4ccccn4)CC3)cc12)c1ccc(F)cc1 [Example 216, 3-(4-Fluorobenzamido)-N-(1-(pyridin-2-yl)cyclopropyl)-1H-indazole-5-carboxamide]
0.52 µM | 0.65 µM | – | – | O=C(Nc1n[nH]c2ccc(C(=O)NC3(c4cccnc4)CC3)cc12)c1ccc(F)cc1 [Example 217, 3-(4-Fluorobenzamido)-N-(1-(pyridin-3-yl)cyclopropyl)-1H-indazole-5-carboxamide]
0.33 µM | – | 0.13 µM | – | Cc1cnc(-c2cc3[nH]nc(NC(=O)c4ccc(N5CCOCC5)cc4)c3s2)s1 [Example 219, N-(5-(5-methylthiazol-2-yl)-1H-thieno[3,2-c]pyrazol-3-yl)-4-morpholinobenzamide]
1.7 µM | – | 0.65 µM | – | Cc1cnc(-c2cc3[nH]nc(NC(=O)c4ccc(F)cc4)c3s2)o1 [Example 221, 4-fluoro-N-(5-(5-methyloxazol-2-yl)-1H-thieno[3,2-c]pyrazol-3-yl)benzamide]
0.35 µM | – | 0.31 µM | – | COc1ccc(C(=O)Nc2n[nH]c3cc(-c4ncc(C)o4)sc23)cc1 [Example 222, 4-methoxy-N-(5-(5-methyloxazol-2-yl)-1H-thieno[3,2-c]pyrazol-3-yl)benzamide]
0.094 µM | – | 0.11 µM | – | Cc1cnc(-c2cc3[nH]nc(NC(=O)c4ccc(N(C)C)cc4)c3s2)o1 [Example 223, 4-(dimethylamino)-N-(5-(5-methyloxazol-2-yl)-1H-thieno[3,2-c]pyrazol-3-yl)benzamide]
1.7 µM | – | 0.66 µM | – | Cc1cnc(-c2cc3[nH]nc(NC(=O)c4cccc(F)c4)c3s2)o1 [Example 230, 3-fluoro-N-(5-(5-methyloxazol-2-yl)-1H-thieno[3,2-c]pyrazol-3-yl)benzamide]
– | – | – | insoluble | COC(=O)c1cc2[nH]nc(-c3ccc(N(C)C)cc3)c2s1 [Example 234, methyl 3-(4-(dimethylamino)phenyl)-1H-thieno[3,2-c]pyrazole-5-carboxylate]
– | – | 1.79 µM | – | CCNC(=O)c1cc2[nH]nc(-c3ccc(N(C)C)cc3)c2s1 [Example 237, 3-(4-(dimethylamino)phenyl)-N-ethyl-1H-thieno[3,2-c]pyrazole-5-carboxamide]
– | – | 0.16 µM | – | COC(=O)c1cc2[nH]nc(-c3ccc(NC(C)=O)cc3)c2s1 [Example 245, methyl 3-(4-acetamidophenyl)-1H-thieno[3,2-c]pyrazole-5-carboxylate]
– | – | > 20 µM | – | Cc1cnc(-c2cc3[nH]nc(-c4ccc(F)cc4)c3s2)s1 [Example 247, 3-(4-fluorophenyl)-5-(5-methylthiazol-2-yl)-1H-thieno[3,2-c]pyrazole]
– | – | 8.09 µM | – | O=C(c1cc2[nH]nc(-c3ccc(N4CCOCC4)cc3)c2s1)N1CCCC1 [Example 248, (3-(4-morpholinophenyl)-1H-thieno[3,2-c]pyrazol-5-yl)(pyrrolidin-1-yl)methanone]
– | – | 0.11 µM | – | Cc1cnc(-c2cc3[nH]nc(-c4ccc(OCCN5CCOCC5)cc4)c3s2)o1 [Example 250, 4-(2-(4-(5-(5-methyloxazol-2-yl)-1H-thieno[3,2-c]pyrazol-3-yl)phenoxy)ethyl)morpholine]
